This is an account of results in the RepoRT retention time repository (doi:10.1007/s00216-021-03828-0).

Holding throughout (conditions): stereoisomer not certain
Series [1] is described as follows: RP, Merck Supelco Ascentis Express C18, 100 × 2.1 mm, 2 µm, 40 °C, 0.35 mL/min, estimated dead time 0.63 min; A: water + 0.1% formic acid, pH 3; B: acetonitrile + 0.1% formic acid, pH 3; gradient (min/%B) 0/5 2/5 17/99.9 20/99.9.
Series [2] can be described thus: RP, Merck Supelco Ascentis Express C18, 100 × 2.1 mm, 2 µm, 40 °C, 0.2 mL/min, estimated dead time 1.1 min; A: water + 0.1% formic acid, pH 3; B: acetonitrile + 0.1% formic acid, pH 3; gradient (min/%B) 0/5 2/5 17/99.9 20/99.9.
Test in series [3]: as above
This is another data set of the same source.

Series [4] can be described thus: RP, Merck Supelco Ascentis Express C18, 100 × 2.1 mm, 2 µm, 40 °C, 0.25 mL/min, estimated dead time 0.88 min; A: water + 0.1% formic acid, pH 3; B: acetonitrile + 0.1% formic acid, pH 3; gradient (min/%B) 0/5 2/5 17/99.9 20/99.9.
A short description of series [5]: RP, Merck Supelco Ascentis Express C18, 100 × 2.1 mm, 2 µm, 39 °C, 0.3 mL/min, estimated dead time 0.73 min; A: water + 0.1% formic acid, pH 3; B: acetonitrile + 0.1% formic acid, pH 3; gradient (min/%B) 0/5 2/5 17/99.9 20/99.9.
Series [6] in a line: RP, Merck Supelco Ascentis Express C18, 100 × 2.1 mm, 2 µm, 40 °C, 0.4 mL/min, estimated dead time 0.55 min; A: water + 0.1% formic acid, pH 3; B: acetonitrile + 0.1% formic acid, pH 3; gradient (min/%B) 0/5 2/5 17/99.9 20/99.9.
Test in series [7]: as above
The source holds these as a separate data set.

Take `O=C(O)Cc1cc(O)ccc1O` [HOMOGENTISATE]: the LC retention time in series [1] was 1.35 min; in series [2] it was 2.38 min; in series [3], 2.48 min; in series [4] it was 1.92 min; in series [5], 1.64 min; in series [6] it was 1.16 min. Also, the LC retention time in series [7] is 1.22 min.
For `O=C(O)c1ccccc1` [BENZOATE], the LC retention time in series [1] is 5.55 min; in series [2], 7.03 min; in series [3], 7.03 min; in series [4], 6.4 min; in series [5], 4.34 min; in series [6], 5.23 min. Further, in series [7], the LC retention time was 5.28 min.
Turning to `CC(CC(=O)O)CC(=O)O` [METHYGLUTARATE], the LC retention time is 2.21 min in series [1]; 3.82 min in series [2]; 3.84 min in series [3]; 3.09 min in series [4]; 2.6 min in series [5]; 1.91 min in series [6]. In series [7], the LC retention time was 1.95 min.
For the compound `O=C(O)C(=O)Cc1c[nH]c2ccccc12` [INDOLE-3-PYRUVATE], the LC retention time in series [1] is 5.84 min; in series [2], 7.11 min; in series [3], 7 min; in series [4], 6.47 min; in series [5], 6.08 min; in series [6], 5.58 min. Also, the LC retention time in series [7] was 5.52 min.
On to `O=C(O)CCCCCCCCCO` [10-HYDROXYDECANOATE], for which the LC retention time is 6.8 min in series [1]; 8.03 min in series [2]; 8.02 min in series [3]; 7.49 min in series [4]; 7.1 min in series [5]; 6.55 min in series [6]. The LC retention time in series [7] was 6.58 min.
Take `CC(=O)Oc1cccc(O)c1` [RESORCINOL MONOACETATE]: the LC retention time is 5.5 min in series [1]; 7.01 min in series [2]; 7 min in series [3]; 6.34 min in series [4]; 5.94 min in series [5]; 5.14 min in series [6]. Moreover, the LC retention time in series [7] was 5.17 min.
For `O=c1[nH]c(=O)c2ncn(C3OC(CO)C(O)C3O)c2[nH]1` (stereo unspecified) [XANTHOSINE], the LC retention time in series [1] was 0.923 min; in series [2] it was 1.62 min; in series [3], 1.65 min; in series [4], 1.29 min; in series [5], 1.05 min; in series [6] it was 0.81 min. In series [7], the LC retention time is 0.81 min.
Take `CCCCCCCCCCCC(=O)OC(CC(=O)[O-])C[N+](C)(C)C` (stereo unspecified) [LAUROYLCARNITINE]: the LC retention time in series [1] was 9.5 min; in series [2] it was 10.7 min; in series [3] it was 10.8 min; in series [4], 10.2 min; in series [5] it was 9.71 min; in series [6] it was 9.25 min. Besides, the LC retention time in series [7] was 9.29 min.
Take `Cc1ncc(CO)c(C(=O)O)c1O` [4-PYRIDOXATE]: the LC retention time was 0.877 min in series [1]; 1.57 min in series [2]; 1.57 min in series [3]; 1.23 min in series [4]; 1.02 min in series [5]; 0.757 min in series [6]. In addition, the LC retention time in series [7] is 0.767 min.
For `Cc1c[nH]c(=O)[nH]c1=O` [THYMINE], the LC retention time in series [1] was 0.903 min; in series [2] it was 1.59 min; in series [3], 1.6 min; in series [4], 1.27 min; in series [5], 1.05 min; in series [6] it was 0.8 min. Further, the LC retention time in series [7] is 0.783 min.
For `CC(C)=CCNc1ncnc2nc[nH]c12` [N6-(DELTA2-ISOPENTENYL)-ADENINE], the LC retention time in series [1] was 4.44 min; in series [2] it was 5.58 min; in series [3] it was 5.58 min; in series [4], 5.08 min; in series [5], 4.71 min; in series [6], 4.21 min. For the same compound, the LC retention time in series [7] was 4.24 min.
Consider `CCCCC(N)C(=O)O` (stereo unspecified) [NORLEUCINE], for which the LC retention time in series [1] is 0.91 min; in series [2], 1.62 min; in series [3] it was 1.63 min; in series [4], 1.3 min; in series [5], 1.05 min; in series [6], 0.79 min. Further, the LC retention time in series [7] is 0.8 min.
For the compound `CCCCCCCCCCCCCCCC(=O)O` [PALMITATE], the LC retention time in series [1] is 16.1 min; in series [2] it was 17.9 min; in series [3] it was 17.9 min; in series [4], 17.1 min; in series [5], 16.5 min; in series [6] it was 15.7 min. In series [7], the LC retention time is 15.7 min.
For `CC(CCC(=O)NCCS(=O)(=O)O)C1CCC2C3CCC4CC(O)CCC4(C)C3CCC12C` (stereo unspecified) [LITHOCHOLYLTAURINE], the LC retention time in series [1] was 9.86 min; in series [2], 11.1 min; in series [3] it was 11 min; in series [4], 10.5 min; in series [5], 10.2 min; in series [6] it was 9.62 min. Moreover, in series [7], the LC retention time is 9.6 min.
Take `O=c1[nH]cnc2c1ncn2C1OC(CO)C(O)C1O` (stereo unspecified) [INOSINE]: the LC retention time in series [1] is 0.76 min; in series [2] it was 1.37 min; in series [3], 1.39 min; in series [4] it was 1.12 min; in series [5] it was 0.943 min; in series [6], 0.663 min. Besides, the LC retention time in series [7] was 0.703 min.
With `CCC(C(=O)O)C(=O)O` [ETHYLMALONATE], the LC retention time in series [1] was 1.72 min; in series [2], 3.01 min; in series [3], 3.05 min; in series [4], 2.31 min; in series [5], 2.06 min; in series [6], 1.48 min. The LC retention time in series [7] was 1.48 min.
In the case of `COc1ccc2[nH]cc(CCNC(C)=O)c2c1` [MELATONIN], the LC retention time was 5.75 min in series [1]; 7.01 min in series [2]; 7 min in series [3]; 6.46 min in series [4]; 6.06 min in series [5]; 5.49 min in series [6]. Besides, in series [7], the LC retention time is 5.53 min.
Regarding `OCCc1c[nH]c2ccccc12` [INDOLE-3-ETHANOL], the LC retention time was 5.95 min in series [1]; 7.27 min in series [2]; 7.25 min in series [3]; 6.66 min in series [4]; 6.22 min in series [5]; 4.78 min in series [6]. The LC retention time in series [7] is 5.61 min.
As to `CC(=O)NC(Cc1ccccc1)C(=O)O` (stereo unspecified) [N-ACETYLPHENYLALANINE], the LC retention time in series [1] was 5.04 min; in series [2] it was 6.32 min; in series [3], 6.31 min; in series [4], 5.77 min; in series [5] it was 5.37 min; in series [6] it was 4.78 min. Besides, in series [7], the LC retention time was 4.82 min.
In the case of `O=C(O)Cc1ccc(O)c(O)c1` [3,4-DIHYDROXYPHENYLACETATE], the LC retention time was 2.32 min in series [1]; 3.97 min in series [2]; 3.92 min in series [3]; 3.22 min in series [4]; 2.67 min in series [5]; 2.02 min in series [6]. Moreover, in series [7], the LC retention time was 1.95 min.
As to `CC(=O)NCCc1c[nH]c2ccc(O)cc12` [N-ACETYLSEROTONIN], the LC retention time in series [1] is 3.77 min; in series [2], 4.96 min; in series [3], 4.97 min; in series [4], 4.45 min; in series [5] it was 4.07 min; in series [6], 3.5 min. The LC retention time in series [7] is 3.52 min.
As for `CC1OC(n2cnc3c(N)ncnc32)C(O)C1O` (stereo unspecified) [5'-DEOXYADENOSINE], the LC retention time in series [1] is 1.09 min; in series [2] it was 1.89 min; in series [3], 1.92 min; in series [4], 1.49 min; in series [5], 1.24 min; in series [6], 0.937 min. In addition, the LC retention time in series [7] was 0.95 min.
Take `NC(=O)c1ccccc1O` [SALICYLAMIDE]: the LC retention time was 4.34 min in series [1]; 5.82 min in series [2]; 5.82 min in series [3]; 5.19 min in series [4]; 4.72 min in series [5]; 4.02 min in series [6]. For the same compound, in series [7], the LC retention time is 4.05 min.
